System: HCV genotype-1a variant with glutamine 30 changed to glutamate in the NS5A protein
Type: cell-based
Conditions: test compound titrated with BMS-790052 fixed at 200 nM; genotype 1a Q30E replicon
Source text: The NS5A synergistic inhibitory effect of test compounds can be determined using various amounts of an NS5A-targeting compound with titration of a second compound of interest. […] In one embodiment, the HCV genotype strain can be genotype 1a containing a change at amino acid 30 of the NS5A protein consisting of glutamine to glutamate. The test compound can be chosen from compounds listed above or from others present in the literature.

Structure (SMILES)	Fold-Synergistic 1a (Q30E)
CC(C)(C)OC(=O)C(=O)N[C@H](c1nc(-c2ccc(-c3ccc(-c4c[nH]c([C@@H](NC(=O)C(=O)OC(C)(C)C)C(C)(C)C)n4)cc3)cc2)c[nH]1)C(C)(C)C [Compound W-43A]	>100 fold
CC(C)(C)[C@H](NC(=O)C(C)(C)n1cnnn1)c1nc(-c2ccc(-c3ccc(-c4c[nH]c([C@@H](NC(=O)C(C)(C)n5cnnn5)C(C)(C)C)n4)cc3)cc2)c[nH]1 [Compound S-277]	>100 fold
O=C(c1cccc(Oc2ccccc2)c1)N1CCC[C@H]1c1ncc(-c2ccc(-c3ccc(-c4cnc([C@@H]5CCCN5C(=O)c5cccc(Oc6ccccc6)c5)[nH]4)cc3)cc2)[nH]1 [Compound S-116]	<10 fold
CC1([C@H](NC(=O)C(=O)N2CCC(C(F)(F)F)CC2)c2nc(-c3ccc(-c4ccc(-c5c[nH]c([C@@H](NC(=O)C(=O)N6CCC(C(F)(F)F)CC6)C6(C)CC6)n5)cc4)cc3)c[nH]2)CC1 [Compound W-59]	>100 fold
CC(C)OC(=O)N[C@@H](C(=O)N[C@H](c1ncc(-c2ccc(-c3ccc(-c4cnc([C@@H](NC(=O)[C@H](NC(=O)OC(C)C)C(C)C)C(C)C)[nH]4)cc3)cc2)[nH]1)C(C)C)C(C)C [Compound S-250]	>100 fold
CC(C)CC(=O)N1CCC[C@H]1c1ncc(-c2ccc(-c3ccc(C4=CNC([C@@H]5CCCN5C(=O)CC(C)C)N4)cc3)cc2)[nH]1 (stereo partly shown) [Compound S-112]	<10 fold
CC(C)(C)C(NC(=O)C(C)(O)C(F)(F)F)c1nc(-c2ccc(-c3ccc(-c4c[nH]c(C(NC(=O)C(C)(O)C(F)(F)F)C(C)(C)C)n4)cc3)cc2)c[nH]1.O=C(O)C(F)(F)F.O=C(O)C(F)(F)F (single isomer, unassigned) [Compound L-66a]	>100 fold
CC(C)(C)[C@H](NC(=O)C1CCCCC1CO)c1nc(-c2ccc(-c3ccc(-c4c[nH]c([C@@H](NC(=O)C5CCCCC5CO)C(C)(C)C)n4)cc3)cc2)c[nH]1 (single isomer, unassigned) [Compound L-141b]	>100 fold
CC(C)(C)C(NC(=O)C1CC(F)CN1C(=O)OC1CCCC1)c1nc(-c2ccc(-c3ccc(-c4c[nH]c(C(NC(=O)C5CC(F)CN5C(=O)OC5CCCC5)C(C)(C)C)n4)cc3)cc2)c[nH]1 (stereo not shown) [Compound W-111]	>100 fold
COc1ccc(C(=O)C(=O)N[C@H](c2ncc(-c3ccc(-c4ccc(-c5cnc([C@@H](NC(=O)C(=O)c6ccc(OC)c(Cl)c6)C(C)C)[nH]5)cc4)cc3)[nH]2)C(C)C)cc1Cl [Compound P-113]	>100 fold
COC(C)(C)C(=O)N[C@H](c1ncc(-c2ccc(-c3ccc(-c4cnc([C@@H](NC(=O)C(C)(C)OC)C(C)C)[nH]4)cc3)cc2)[nH]1)C(C)C [Compound P-69]	>100 fold
Cc1cccc(C(=O)N[C@H](c2ncc(-c3ccc(-c4ccc(-c5cnc([C@@H](NC(=O)c6cccc(C)n6)C(C)C)[nH]5)cc4)cc3)[nH]2)C(C)C)n1 [Compound S-48]	>100 fold
CC(C)CC(=O)N[C@H](c1ncc(-c2ccc(C#Cc3ccc(-c4cnc([C@@H](NC(=O)CC(C)C)C(C)(C)C)[nH]4)cc3)cc2)[nH]1)C(C)(C)C [Compound N-3]	>10 fold
CC(C)(C)[C@H](NC(=O)OC1CCC(F)(F)CC1)c1nc(-c2ccc(-c3ccc(-c4c[nH]c([C@@H](NC(=O)OC5CCC(F)(F)CC5)C(C)(C)C)n4)cc3)cc2)c[nH]1 [Compound P-138]	>100 fold
CC(C)[C@H](NC(=O)C1CCC(F)(F)CC1)c1ncc(-c2ccc(-c3ccc(-c4cnc([C@@H](NC(=O)C(C)(C)C)C(C)C)[nH]4)cc3)cc2)[nH]1 [Compound Y-52]	>100 fold
CC(C)(C)[C@H](NC(=O)c1ccccc1F)c1nc(-c2ccc(-c3ccc(-c4c[nH]c([C@@H](NC(=O)c5ccccc5F)C(C)(C)C)n4)c(F)c3)cc2)c[nH]1.O=C(O)C(F)(F)F [Compound N-95]	>100 fold
CC(C)CC(=O)NC1(c2ncc(-c3ccc(-c4ccc(-c5cnc(C6(NC(=O)CC(C)C)CC=CC6)[nH]5)cc4)cc3)[nH]2)CC=CC1.O=C(O)C(F)(F)F.O=C(O)C(F)(F)F [Compound N-16]	<10 fold
CC(C)(C)OC(=O)NC1(C(=O)N[C@H](c2nc(-c3ccc(-c4ccc(-c5c[nH]c([C@@H](NC(=O)C6(NC(=O)OC(C)(C)C)CC6(F)F)C(C)(C)C)n5)cc4)cc3)c[nH]2)C(C)(C)C)CC1(F)F (single isomer, unassigned) [Compound W-14]	>100 fold
COc1ccc(C(=O)N[C@H](c2nc(-c3ccc(-c4ccc(-c5c[nH]c([C@@H](NC(=O)c6ccc(OC)cc6)C(C)(C)C)n5)cc4)cc3)c[nH]2)C(C)(C)C)cc1 [Compound N-54]	>100 fold

Structure (SMILES)	Fold-Synergistic 1a (Q30E)
CC(C)(C)OC(=O)CC(C(=O)NC(c1nc(-c2ccc(-c3ccc(-c4c[nH]c(C(NC(=O)C(CC(=O)OC(C)(C)C)C5CCCC5)C(C)(C)C)n4)cc3)cc2)c[nH]1)C(C)(C)C)C1CCCC1 (stereo not shown) [Compound S-272]	>100 fold
COC(C)(CCO)C(=O)N[C@H](c1nc(-c2ccc(-c3ccc(-c4c[nH]c([C@@H](NC(=O)C(C)(CCO)OC)C(C)(C)C)n4)cc3)cc2)c[nH]1)C(C)(C)C (single isomer, unassigned) [Compound W-259]	>100 fold
CC(C)[C@H](N[S+]([O-])C(C)(C)C)c1ncc(-c2ccc(-c3ccc(-c4cnc([C@@H](N[S+]([O-])C(C)(C)C)C(C)C)[nH]4)cc3)cc2)[nH]1 (single isomer, unassigned) [Compound Y-59]	>100 fold
COC(=O)N[C@@H](C(=O)N[C@H](c1nc(-c2ccc(-c3ccc(-c4c[nH]c([C@@H](NC(=O)[C@H](NC(=O)OC)C(C)C)C(C)(C)C)n4)cc3)cc2)c[nH]1)C(C)(C)C)C(C)C [Compound N-28]	>100 fold
COC1CC(C(=O)NC(c2nc(-c3ccc(-c4ccc(-c5c[nH]c(C(NC(=O)C6CC(OC)C6)C(C)(C)C)n5)cc4)cc3)c[nH]2)C(C)(C)C)C1 [Compound L-54]	>100 fold
CC(C)[C@H](NC(=O)c1cnco1)c1ncc(-c2ccc(-c3ccc(-c4cnc([C@@H](NC(=O)c5cnco5)C(C)C)[nH]4)cc3)cc2)[nH]1 [Compound P-94]	>10 fold
CC(C)(C)[C@H](NC(=O)CC1CC(F)(F)C1)c1nc(-c2ccc(-c3ccc(-c4c[nH]c([C@@H](NC(=O)CC5CC(F)(F)C5)C(C)(C)C)n4)cc3)cc2)c[nH]1 [Compound N-120]	>100 fold
CC(C)CC(=O)N1C[C@@H](C)C[C@H]1c1nc(-c2ccc(-c3ccc(-c4c[nH]c([C@@H]5C[C@H](C)CN5C(=O)CC(C)C)n4)cc3)cc2)c[nH]1 [Compound P-51]	<10 fold
CC(C)[C@H](NC(=O)c1ccc(Cl)s1)c1ncc(-c2ccc(-c3ccc(-c4cnc([C@@H](NC(=O)c5ccc(Cl)s5)C(C)(C)C)[nH]4)cc3)cc2)[nH]1 [Compound Y-44]	>100 fold
CC1(C)CC(C(=O)NC(c2nc(-c3ccc(-c4ccc(-c5c[nH]c(C(NC(=O)C6CC(C)(C)C6)C(C)(C)C)n5)cc4)cc3)c[nH]2)C(C)(C)C)C1 [Compound L-53]	>100 fold
O=C(c1cccc2cnccc12)N1CCC[C@H]1c1ncc(-c2ccc(-c3ccc(-c4cnc([C@@H]5CCCN5C(=O)c5cccc6cnccc56)[nH]4)cc3)cc2)[nH]1 [Compound S-203]	<10 fold
CC(C)(C)[C@H](NC(=O)c1ccc(C(F)(F)F)s1)c1nc(-c2ccc(-c3ccc(-c4c[nH]c([C@@H](NC(=O)c5ccc(C(F)(F)F)s5)C(C)(C)C)n4)cc3)cc2)c[nH]1 [Compound N-114]	>100 fold
COc1ccccc1C(=O)N[C@H](c1nc(-c2ccc(-c3ccc(-c4c[nH]c([C@@H](NC(=O)c5ccccc5OC)C(C)(C)C)n4)cc3)cc2)c[nH]1)C(C)(C)C [Compound P-28]	>100 fold
CC(C)[C@H](NC(=O)C(=O)C1(C)CCC1)c1ncc(-c2ccc(-c3ccc(-c4cnc([C@@H](NC(=O)C(=O)C5(C)CCC5)C(C)C)[nH]4)cc3)cc2)[nH]1 [Compound P-115]	>100 fold
O=C(Oc1ccc2ccccc2c1)N1CCC[C@H]1c1ncc(-c2ccc(-c3ccc(-c4cnc([C@@H]5CCCN5C(=O)Oc5ccc6ccccc6c5)[nH]4)cc3)cc2)[nH]1 [Compound S-226]	>100 fold
C#CCOC(=O)N[C@@H](C(=O)N[C@H](c1ncc(-c2ccc(-c3ccc(-c4cnc([C@@H](NC(=O)[C@H](NC(=O)OCC#C)C(C)C)C(C)C)[nH]4)cc3)cc2)[nH]1)C(C)C)C(C)C [Compound S-252]	>100 fold
CC(C)(C)[C@H](NC(=O)[C@@]1(C)CCC(F)(F)CO1)c1ncc(-c2ccc([C@H]3C[C@@H]3c3ccc(-c4cnc([C@@H](NC(=O)[C@@]5(C)CCC(F)(F)CO5)C(C)(C)C)[nH]4)cc3)cc2)[nH]1 [Compound B-187]	>100 fold
CC(C)(C)[C@H](NC(=O)C(C)(O)C1(C)CC1)c1nc(-c2ccc(-c3ccc(-c4c[nH]c([C@@H](NC(=O)C(C)(O)C5(C)CC5)C(C)(C)C)n4)cc3)cc2)c[nH]1 (single isomer, unassigned) [Compound L-93c]	>100 fold

From patent publication US20160158200A1, “Combinations of Hepatitis C Virus Inhibitors” (priority 2013, published 2016)
